In general, IC50 refers to the concentration that gives 50% inhibition. A low value points to inhibition by little substance.

Among the data in ChEMBL document CHEMBL3097994, “Simplified captopril analogues as NDM-1 inhibitors” (Bioorg Med Chem Lett, 2014) are IC50 and inhibition values, retold here.

Activity calls are given as the source filed them. The rule behind the calls is not given here. Some results are limits rather than exact numbers.

Assay [1] is described as follows: Inhibition of NDM-1 (unknown origin) using imipenem as substrate by spectrophotometric analysis.
Assay [2] in a line: Inhibition of NDM-1 (unknown origin) using imipenem as substrate at 1 mM by spectrophotometric analysis.
The nature of assay [3]: Inhibition of NDM-1 (unknown origin).

`CCCCNC(=O)C(C)CS` (stereo not drawn) returned a half-inhibitory concentration (IC50) in assay [1] of 20 µM. As for `COC(=O)C(C)CS` (stereo not drawn), the inhibition entry in assay [2] is “inactive”. `CC(CS)C(=O)N1CCOCC1` (stereo not drawn): the inhibition entry in assay [2] was “inactive”.

In turn, `CC(CS)C(=O)Nc1ncc[nH]1` (stereo not drawn) gave an IC50 in assay [1] greater than 200 µM. `CC(CS)C(=O)Nc1ncc(Br)s1` (stereo not drawn) had a 50% inhibitory concentration (IC50) in assay [1] of 52 µM. In other words, the double-digit micromolar range. On to `Cc1ccccc1CNC(=O)[C@H](C)CS`, for which the half-inhibitory concentration (IC50) in assay [1] was greater than 200 µM. On the same count and under the same terms, as for `CC(CS)C(=O)Nc1ccc(F)cc1` (stereo not drawn), the figure is greater than 200 µM; as for `CON(C)C(=O)[C@@H](C)CS`, 48 µM; as for `CC(CS)C(=O)NCCc1cccs1` (stereo not drawn), greater than 200 µM.

Consider `C[C@@H](CS)C(=O)NCc1ccccc1`, for which the half-inhibitory concentration (IC50) in assay [1] amounted to 1.5 µM.

As to `CONC(=O)[C@@H](C)CS`, the IC50 in assay [1] was found to be 92 µM. `CC(CS)C(=O)NCc1ccco1` (stereo not drawn) returned an IC50 in assay [1] greater than 200 µM. In the case of `CC(CS)C(=O)NCCc1ccccc1` (stereo not drawn), the half-maximal inhibitory concentration (IC50) in assay [1] was greater than 200 µM. Compound `C[C@H](CS)C(=O)NCc1ccccc1O` had an IC50 in assay [1] of 5 µM. This lies in the single-digit micromolar range. The compound `C[C@H](CS)C(=O)N1CCC[C@H]1C(=O)O` [CAPTOPRIL] had a half-inhibitory concentration (IC50) in assay [3] of 39 µM.

`C[C@@H](CS)C(=O)O` registered a 50% inhibitory concentration (IC50) in assay [1] of 53 µM. For the compound `COc1ccc(CONC(=O)C(C)CS)cc1` (stereo not drawn), in assay [1], the half-inhibitory concentration (IC50) is greater than 200 µM.

As for `CC(CS)C(=O)Nc1nccs1` (stereo not drawn), the IC50 in assay [1] is greater than 200 µM. The same measure, in the same setting: as for `CC(CS)C(=O)O` (racemic), the figure is 56 µM.

For `CC(CO)CS` (stereo not drawn), the IC50 in assay [1] stood at 15 µM. `C[C@H](CS)C(=O)NCCS(C)(=O)=O`: it took 120 µM to reach half-maximal inhibition in assay [1] (IC50). Still for that read-out and setting: for `C[C@H](CS)C(=O)NCc1ccccc1` the value was 5 µM; for `OCC(S)CS` (stereo not drawn) [DIMERCAPROL], 10.4 µM.

In turn, `CON(C)C(=O)[C@H](C)CS` registered a concentration for half-maximal inhibition (IC50) in assay [1] of 20 µM. Regarding `CONC(=O)[C@H](C)CS`, the half-maximal inhibitory concentration (IC50) in assay [1] was 55 µM. Compared with the last compound, the IC50 is about 2.8-fold higher. Still for that read-out and setting: as for `C[C@H](CS)C(=O)O`, the figure is 81 µM; as for `CSCCNC(=O)[C@H](C)CS`, 13 µM.

In assay [1], `CC(CS)C(=O)NCc1ccc(F)cc1` (stereo not drawn) gave an IC50 greater than 200 µM. Turning to `CC(CS)C(=O)Nc1ccccc1` (stereo not drawn), 135 µM corresponded to half-maximal inhibition in assay [1] (IC50).

Take `CNc1ccccc1NC(=O)C(C)CS` (stereo not drawn): the inhibition result in assay [2] is “inactive”.

`Cc1coc(NC(=O)C(C)CS)n1` (stereo not drawn) registered an IC50 in assay [1] of 21 µM. Compound `CC(CS)C(=O)Nc1cccc(F)c1` (stereo not drawn) yielded a half-inhibitory concentration (IC50) in assay [1] greater than 200 µM. In turn, `C[C@H](CS)C(=O)NCc1ccc(O)cc1` returned an IC50 in assay [1] greater than 200 µM.
